Converted amounts (≈) assume the structure as drawn.
Experiments:
E. coli TolC(−) [1] = assay: TolC(−) MIC (NB); format: cell-based; conditions: Escherichia coli, read-out: TolC(−) MIC (μM)(NB)
Caco-2 permeability = format: in vitro ADME; conditions: human, direction not given
Excerpt: Res., 15(5): 726-733 (1998).

E. coli TolC(−) [2] = conditions: MIC in the presence of 10% fetal calf serum versus without
[3] = Mammalian cell cytotoxicity
[4] = Microsomal stability + NADPH; conditions: mouse liver microsomes, 0.5 hr at 37° C.
[5] = Aqueous solubility, nephelometry; conditions: water, kinetic from dmso stock
[6] = Mouse serum binding, equilibrium dialysis
MRSA-1094 (MDR) = format: cell-based; conditions: Staphylococcus aureus; MRSA-1094 (MDR); read-out: MIC
[7] = system: S. aureus ATCC 25923 (MSSA. osteomyelitis isolate); format: cell-based; conditions: Staphylococcus aureus; S. aureus ATCC 25923 (MSSA); read-out: MIC
MRSA USA 300 (BAA-1717) = format: cell-based; conditions: Staphylococcus aureus; MRSA USA 300 (BAA-1717); read-out: MIC
[8] = system: E. coli (700, TolC+) efflux pos; format: cell-based; conditions: Escherichia coli; E. coli (700, TolC+) efflux pos; read-out: MIC
Mouse serum stability = conditions: 5 μM, 37° C., 4 h
N. gonorrhoeae 49226 = format: cell-based; conditions: Neisseria gonorrhoeae; N. gonorrhoeae 49226; read-out: MIC
S. pneumoniae 49619 = format: cell-based; conditions: Streptococcus pneumoniae; S. pneumoniae 49619; read-out: MIC
M. pneumoniae 15531 = format: cell-based; conditions: Mycoplasmoides pneumoniae; M. pneumoniae 15531; read-out: MIC
[9] = system: Moraxella catarrhalis 8176; format: cell-based; conditions: read-out: MIC
[10] = system: Legionella pneumophila 33153; assay: microbe, parasite or virus in culture; format: cell-based
[11] = system: Haemophilus influenza 35056; format: cell-based; conditions: Haemophilus influenza 35056; read-out: MIC
[12] = system: S. aureus (MRSA-1234547263, Cip-res); format: cell-based; conditions: Staphylococcus aureus; S. aureus (MRSA-1234547263, Cip-res); read-out: MIC
[13] = system: S. aureus (ATCC 35556, spec, kan-res); format: cell-based; conditions: Staphylococcus aureus, ATCC35556
[14] = system: S. aureus NRS-77 (spec-res); format: cell-based; conditions: Staphylococcus aureus, NRS77; S. aureus NRS-77 (spec-res); read-out: MIC
[15] = system: S. aureus WTBF-19 (MSSA. osteomyelitis isolate); format: cell-based; conditions: Staphylococcus aureus; S. aureus WTBF-19 (MSSA); read-out: MIC
MRSA N315 NRS-70 = format: cell-based; conditions: Staphylococcus aureus; MRSA N315 NRS-70; read-out: MIC

Structure (SMILES) | MIC (E. coli TolC(−) [1]) [µM] | Fold Serum Shift vs. TolC(−) (E. coli TolC(−) [2]) [fold] | CC50 [3] [µM] | Microsomal Stability + NADPH % degraded [4] [%] | solubility [5] [µM] | fraction unbound [6] | MIC (MRSA-1094 (MDR)) [µg/mL] | MIC [7] [µg/mL] | MIC [8] [µg/mL] | Serum Stability (% remain) (Mouse serum stability) [%] | further results
O=C(Nc1nnc(-c2ccc(F)cc2)o1)c1ccc(Oc2cccc(O)c2)cc1 [compound 4304] | 3.51 (≈ 1.37 µg/mL) | 28.5 | > 100 | 85 | 50 (≈ 19.6 µg/mL) | < 0.01 | – | – | – | – | Papp (Caco-2 permeability): 13.7 ×10⁻⁶ cm/s
O=C(Nc1nnc(C2CCCC2)o1)c1ccc(Oc2ccccc2)nc1 [compound 4470] | 7.02 (≈ 2.46 µg/mL) | 7.1 | > 100 | 2 | 100 (≈ 35 µg/mL) | 0.022 | – | – | – | – | –
CC(C)(C)OC(=O)N1CC(Oc2ccc(C(=O)Nc3nnc(-c4ccc(F)cc4)o3)cc2)C1 [compound 4288] | 3.51 (≈ 1.59 µg/mL) | – | 6.6 | – | 25 (≈ 11.4 µg/mL) | – | 5.68 (≈ 12.5 µM) | 7.16 (≈ 15.8 µM) | > 45 | – | MIC (MRSA USA 300 (BAA-1717)): 2.01 µg/mL (≈ 4.42 µM)
CC(C)(C)C1=CCN(C(=O)Nc2nnc(-c3ccc(F)cc3)o2)CC1 [compound 4841] | 6.25 (≈ 2.15 µg/mL) | 8 | – | – | – | – | – | – | – | – | –
CC1=C(Br)CN(C(=O)Nc2nnc(-c3ccc(F)cc3)o2)CC1 [compound 4923] | 0.78 (≈ 0.297 µg/mL) | 18 | – | – | – | – | – | – | – | >95 | –
CC1=CCN(C(=O)Nc2nnc(-c3ccc(F)cc3)o2)CC1 [compound 4366] | 6.25 (≈ 1.89 µg/mL) | 4 | 46 | 45 | 25 (≈ 7.56 µg/mL) | 0.051 | – | – | – | 95 | Papp (Caco-2 permeability): 67.3 ×10⁻⁶ cm/s
O=C(Nc1nnc(-c2ccc(F)cc2)o1)N1CCc2cc(F)ccc2C1 [compound 4331] | 3.12 (≈ 1.11 µg/mL) | – | 34 | <30 | 12.5 (≈ 4.45 µg/mL) | – | 3.15 (≈ 8.84 µM) | 4.45 (≈ 12.5 µM) | > 35 | – | MIC (N. gonorrhoeae 49226): 0.089 µg/mL (≈ 0.25 µM)
Cc1cccc(-c2nnc(NC(=O)c3ccc(Oc4ccccc4)nc3)o2)c1 [compound 4499] | 1.56 (≈ 0.581 µg/mL) | 20 | > 100 | 19 | 25 (≈ 9.31 µg/mL) | < 0.01 | – | – | – | – | –
O=C(Nc1nnc(-c2ccc(F)cc2)o1)N1Cc2ccccc2C1 [compound 4330] | 6.25 (≈ 2.03 µg/mL) | – | > 100 | 43.5 | 3.13 (≈ 1.02 µg/mL) | – | 2.03 (≈ 6.26 µM) | ≥ 32 | > 32 | – | MIC (MRSA USA 300 (BAA-1717)): 1.01 µg/mL (≈ 3.11 µM); MIC (N. gonorrhoeae 49226): 0.16 µg/mL (≈ 0.493 µM)
O=C(Nc1nnc(-c2ccc(F)cc2)o1)N1CC(C(F)(F)F)C(C(F)(F)F)C1 (stereo not shown) [compound 4839] | 3.13 (≈ 1.29 µg/mL) | 12.5 | – | – | 6.25 (≈ 2.58 µg/mL) | – | – | – | – | >95 | –
O=C(Nc1nnc(-c2ccc(F)cc2)o1)N1CCC2(CCC2)CC1 [compound 4842] | 6.25 (≈ 2.06 µg/mL) | 4 | – | – | – | – | – | – | – | 77 | –
O=C(Nc1nnc(-c2ccc(F)cc2)o1)c1ccc(OC2CCCC2)cc1 [compound 4293] | 1.39 (≈ 0.511 µg/mL) | – | 31.8 | 59 | 3.12 (≈ 1.15 µg/mL) | 0.001 | 0.72 (≈ 1.96 µM) | 1.15 (≈ 3.13 µM) | > 36 | 88 | MIC (MRSA USA 300 (BAA-1717)): 0.29 µg/mL (≈ 0.789 µM); MIC (S. pneumoniae 49619): 4.59 µg/mL (≈ 12.5 µM); MIC (M. pneumoniae 15531): 18.4 µg/mL (≈ 50.1 µM); MIC (N. gonorrhoeae 49226): 0.09 µg/mL (≈ 0.245 µM); MIC [9]: < 0.02 µg/mL; MIC [10]: 0.59 µg/mL (≈ 1.61 µM); MIC [11]: 12.2 µg/mL (≈ 33.3 µM)
CCN(c1ccccc1)c1ccc(C(=O)Nc2nnc(-c3ccc(F)cc3)o2)cc1 [compound 4285] | 2.48 (≈ 0.998 µg/mL) | – | 59.9 | – | 3.12 (≈ 1.26 µg/mL) | – | 2.52 (≈ 6.26 µM) | 6.34 (≈ 15.8 µM) | > 40 | – | MIC (MRSA USA 300 (BAA-1717)): 0.63 µg/mL (≈ 1.57 µM)
Cc1ccccc1Oc1ccc(C(=O)Nc2nnc(-c3ccc(F)cc3)o2)cc1 [compound 4307] | 1.56 (≈ 0.608 µg/mL) | – | 65 | <30 | 12.5 (≈ 4.87 µg/mL) | – | – | – | – | – | –
O=C(Nc1nnc(-c2ccc(F)cc2)o1)N1CCC(C(F)(F)F)CC1 [compound 4840] | 6.25 (≈ 2.24 µg/mL) | 4 | – | – | – | – | – | – | – | – | –
O=C(Nc1nnc(C2CCCCC2)o1)c1ccc(Oc2cccc(O)c2)cc1 [compound 4801] | 3.13 (≈ 1.19 µg/mL) | 16 | – | – | 12.5 (≈ 4.74 µg/mL) | – | – | – | – | >95 | Papp (Caco-2 permeability): 13.2 ×10⁻⁶ cm/s
O=C(Nc1nnc(-c2ccc(F)cc2)o1)c1ccc(OC2CCCCC2)cc1 [compound 4292] | 1.1 (≈ 0.421 µg/mL) | – | 23.7 | 20 | 6.25 (≈ 2.38 µg/mL) | < 0.01 | 0.75 (≈ 1.97 µM) | 1.23 (≈ 3.22 µM) | > 39 | 82 | MIC [12]: 0.67 µg/mL (≈ 1.76 µM); MIC [13]: 0.95 µg/mL (≈ 2.49 µM); MIC [14]: 1.17 µg/mL (≈ 3.07 µM); MIC [15]: 1.19 µg/mL (≈ 3.12 µM); MIC (MRSA USA 300 (BAA-1717)): 0.3 µg/mL (≈ 0.787 µM); MIC (MRSA N315 NRS-70): 1.36 µg/mL (≈ 3.57 µM); MIC (S. pneumoniae 49619): 4.77 µg/mL (≈ 12.5 µM); MIC (M. pneumoniae 15531): 19.1 µg/mL (≈ 50.1 µM); MIC (N. gonorrhoeae 49226): 0.1 µg/mL (≈ 0.262 µM); MIC [9]: < 0.02 µg/mL; MIC [10]: 0.61 µg/mL (≈ 1.6 µM); MIC [11]: > 39 µg/mL; Papp (Caco-2 permeability): 1 ×10⁻⁶ cm/s
O=C(Nc1nnc(C2CCCCC2)o1)N1CCC(Cl)=C(Cl)C1 [compound 4808] | 6.25 (≈ 2.16 µg/mL) | – | – | – | – | – | – | – | – | >95 | Papp (Caco-2 permeability): 24.5 ×10⁻⁶ cm/s
C=CCN(C)C(=O)Nc1nnc(-c2ccc(F)cc2)o1 [compound 4345] | 25 (≈ 6.91 µg/mL) | – | – | – | – | – | 19.5 (≈ 70.7 µM) | 27.6 (≈ 99.9 µM) | > 27 | – | –
Cc1cc(C)cc(Oc2ccc(C(=O)Nc3nnc(-c4ccc(F)cc4)o3)cc2)c1 [compound 4308] | 1.56 (≈ 0.63 µg/mL) | – | 32 | <30 | 3.13 (≈ 1.26 µg/mL) | – | – | – | – | – | –
O=C(Nc1nnc(C2CCCCC2)o1)c1ccc(Oc2ccccc2)nc1 [compound 4780] | 1.24 (≈ 0.452 µg/mL) | – | – | – | – | 0.005 | – | – | – | – | –
COc1ccc(Oc2ccc(C(=O)Nc3nnc(-c4ccc(F)cc4)o3)cc2)cc1 [compound 4310] | 0.781 (≈ 0.317 µg/mL) | – | > 100 | <30 | 6.25 (≈ 2.53 µg/mL) | – | – | – | – | – | –
O=C(Nc1nnc(-c2ccc(F)cc2)o1)N1CCc2ccc(F)cc2C1 [compound 4332] | 3.12 (≈ 1.11 µg/mL) | – | 14.4 | <30 | 3.13 (≈ 1.12 µg/mL) | – | 5 (≈ 14 µM) | 7.07 (≈ 19.8 µM) | > 35 | – | MIC (N. gonorrhoeae 49226): 0.089 µg/mL (≈ 0.25 µM)
Cc1cccc(Oc2ccc(C(=O)Nc3nnc(-c4ccc(F)cc4)o3)cc2)c1 [compound 4306] | 0.984 (≈ 0.383 µg/mL) | – | > 100 | <30 | 6.25 (≈ 2.43 µg/mL) | – | – | – | – | – | –
O=C(Nc1nnc(-c2ccc(F)cc2)o1)N1CC=C(C(F)(F)F)CC1 [compound 4347] | 2.48 (≈ 0.884 µg/mL) | – | > 100 | <30 | 3.1 (≈ 1.1 µg/mL) | < 0.01 | 2.23 (≈ 6.26 µM) | > 35 | > 27 | 93 | MIC (N. gonorrhoeae 49226): 0.089 µg/mL (≈ 0.25 µM); Papp (Caco-2 permeability): 21.8 ×10⁻⁶ cm/s
O=C(Nc1nnc(-c2ccc(F)cc2)o1)N1CCC(Cl)=C(Cl)C1 [compound 4737] | 0.78 (≈ 0.279 µg/mL) | 32 | > 100 | 21 | 6.3 (≈ 2.25 µg/mL) | < 0.01 | – | – | – | >95 | –
